Assays:
[1] = target: T1, human sphingosine-1-phosphate receptor 1 (S1P1) (Homo sapiens (Human), UniProt P21453); assay: Inhibition of cAMP production (HTRF cAMP HiRange), S1P1 CHO-K1 cells; format: cell-based; conditions: for hS1P1 cAMP pEC50: inhibition of cAMP production, S1P1 CHO-K1 cells
Outline: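 CHO-K1 cells stably co-expressing human S1P1 (C-terminal Prolink tag) and EA-β-arrestin2 were grown in AssayComplete Media 6 at 37° C. and 5% CO2, plated, and incubated overnight. Agonist-driven inhibition of intracellular cAMP was read by TR-FRET with the HTRF cAMP HiRange kit on a PheraStar reader. Potency is pEC50, and efficacy (SPAN) is normalized to fingolimod.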
Target sequence in this assay (P21453 whole entry, looked up): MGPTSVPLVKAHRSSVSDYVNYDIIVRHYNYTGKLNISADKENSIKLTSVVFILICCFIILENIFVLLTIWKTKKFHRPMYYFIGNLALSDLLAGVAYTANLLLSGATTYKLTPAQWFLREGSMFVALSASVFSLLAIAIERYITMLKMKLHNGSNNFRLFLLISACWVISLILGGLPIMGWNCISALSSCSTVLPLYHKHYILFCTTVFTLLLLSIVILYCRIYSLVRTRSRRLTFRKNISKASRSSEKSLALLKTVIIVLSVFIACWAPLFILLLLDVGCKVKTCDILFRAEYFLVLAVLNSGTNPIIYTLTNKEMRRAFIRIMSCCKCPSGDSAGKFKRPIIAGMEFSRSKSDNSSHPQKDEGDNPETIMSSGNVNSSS

[2] = target: T1, human sphingosine-1-phosphate receptor 1 (S1P1); assay: β-Arrestin2 recruitment assay (PathHunter), S1P1 CHO-K1 cells; format: cell-based; conditions: for hS1P1 B-arrestin2 pEC50: β-arrestin2 recruitment, S1P1 CHO-K1 cells
Outline: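 Enzyme-fragment complementation read-out: agonist-driven β-arrestin2 binding to ProLink-tagged human S1P1 in stable CHO-K1 cells restores β-galactosidase, measured 1 h at room temperature after a 60 min 37° C. compound incubation. Potency as pEC50, efficacy relative to fingolimod (SPAN).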
Target sequence in this assay (P21453 whole entry, looked up): as above
Target sequence in this assay (P32121 whole entry partner, looked up): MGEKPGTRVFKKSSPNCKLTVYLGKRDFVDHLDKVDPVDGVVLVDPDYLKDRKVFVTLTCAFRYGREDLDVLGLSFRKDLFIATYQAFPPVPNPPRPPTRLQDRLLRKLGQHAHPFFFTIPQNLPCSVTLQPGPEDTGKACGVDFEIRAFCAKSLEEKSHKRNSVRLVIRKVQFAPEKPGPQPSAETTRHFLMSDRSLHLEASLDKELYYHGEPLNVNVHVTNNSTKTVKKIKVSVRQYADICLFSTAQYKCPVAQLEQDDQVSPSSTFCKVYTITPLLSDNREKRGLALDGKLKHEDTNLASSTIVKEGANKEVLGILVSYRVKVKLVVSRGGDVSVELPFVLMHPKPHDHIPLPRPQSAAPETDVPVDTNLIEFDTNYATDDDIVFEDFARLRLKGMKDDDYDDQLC

[3] = target: human sphingosine-1-phosphate receptor 2 (S1P2) (Homo sapiens (Human), UniProt O95136); assay: Inositol monophosphate production (IP-one TB kit), S1P2 CHO-K1 cells; format: cell-based; conditions: inositol monophosphate accumulation, hS1P2
Outline: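 Stable CHO-K1 cells expressing EA-β-arrestin2 and Prolink-tagged human S1P2, plated overnight, then exposed to compounds in IP-one stimulation buffer for 60 min at 37 °C. IP1 read by TR-FRET after 1 h at RT. Efficacy (SPAN) normalized to CYM5520; potency as pEC50.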

[4] = target: human sphingosine-1-phosphate receptor 3 (S1P3) (Homo sapiens (Human), UniProt Q99500); assay: Inhibition of cAMP production (HTRF), S1P3 CHO-K1 cells; format: cell-based; conditions: inhibition of cAMP production, hS1P3
[5] = target: sphingosine-1-phosphate receptor 5 (S1P5) (Homo sapiens (Human), UniProt Q9H228); assay: Inhibition of cAMP production (HTRF), S1P5 CHO-K1 cells; format: cell-based; conditions: inhibition of cAMP production, hS1P5
[6] = system: peripheral blood lymphocytes; assay: Peripheral blood lymphocytes (lymphopenia) in c57bl/6 mice, acute and chronic studies; format: in vivo; conditions: peripheral blood lymphocytes vs vehicle; 6 mg/kg sc, 7 days
Description: Compounds were tested for changes in peripheral blood lymphocytes in c57bl/6 mice. In acute studies, animals (n=5/group) were dosed subcutaneously with test compound at a dose of 3 mg/kg. Animals were sacrificed at specific time points and 500 μl of whole blood was collected in EDTA (K2) Eppendorf tubes. Blood was stored on ice and shipped immediately overnight delivery to Charles River Laboratories for analysis. CRL ran samples through their WBC/differential panel on an Advia 120 instrument. We received peripheral lymphocyte counts (10^3 cells/μl) for each blood sample. Treatment group means were compared to a vehicle treatment group for statistical significance. In chronic studies, animals (n=6-8/group) were dosed subcutaneously with test compound either in a dose response paradigm (highest dose of 3 mg/kg) or in a screening paradigm at 6 mg/kg for seven days. On the seventh day, animals were sacrificed 45 minutes after the final dose. Whole blood was collected and analyzed as described for acute studies. […]

[7] = system: paclitaxel induced peripheral neuropathy; assay: Reversal of allodynia induced by paclitaxel in mice (s.c. or p.o., von Frey frequency method); format: in vivo, c57bl/6 mice; conditions: Mus musculus, po, 1 h, 3 mg/kg p.o., tested 60 min after dosing, read-out: Screen @ 3 mg/kg po (% MPE)
Outline: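 Neuropathy was induced in mice by paclitaxel (6 mg/kg i.p., days 1, 3, 5, 7) or oxaliplatin (4 mg/kg i.p., days 1-5), with re-testing about 14 days later. Compounds were given s.c. (tested at 30 min) or p.o. (tested at 60 min; paclitaxel only). A 0.4 g von Frey filament was applied ten times per paw, and % non-response was converted to % MPE.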

[8] = target: hERG channel (Homo sapiens (Human), UniProt Q12809); assay: Automated Qpatch patch-clamp hERG assay
[9] = system: A2780 human ovarian carcinoma; assay: A2780 human ovarian carcinoma xenograft tumor growth delay in athymic nude mice; conditions: monotherapy vs control; paclitaxel i.v. qod×5; ozanimod or Compound 103 p.o. qd to end; 60-day study
Description: Female athymic nude mice (Crl:NU(NCr)-Foxnlnu, Charles River Laboratories) were implanted with A2780 human ovarian carcinoma cells to initiate tumor growth.
Each mouse received 1×10^7 cells (0.1 mL cell suspension) subcutaneously in the right flank, and tumors were monitored as their volumes approached the target range of 100 to 150 mm3. Fourteen days later, designated as Day 1 of the study, mice were sorted into six groups of ten each. […] Tumors were measured twice weekly for the study duration.
Starting on Day 1 of the study, six groups (n=10) of female athymic nude mice with established A2780 tumors were treated according to the following plan. Treatments were administered either by intravenous injection (i.v.) or oral gavage (p.o.) and were adjusted to the body weight of the individual animal. Group 1 received Vehicle 1, i.v., once every other day for five doses (qod×5) and Vehicle 2, p.o., once daily to the end of the study (qd to end), and served as the control group for efficacy analysis. Group 2, the paclitaxel monotherapy group, received paclitaxel i.v., qod×5 plus Vehicle 2, p.o., qd to end. Group 3, the ozanimod monotherapy group, received ozanimod p.o., qd to end plus Vehicle 1, i.v., qod×5. Combination Group 4 received ozanimod p.o., qd to end plus paclitaxel i.v., qod×5.
Animals were monitored individually, and each mouse was euthanized when its tumor reached the endpoint volume of 2000 mm3 or on the final day, whichever came first. The time to endpoint (TTE) was calculated for each mouse. Treatment outcome was determined from percent tumor growth delay (% TGD), defined as the percent increase in median TTE for treated versus control mice, with differences in TTE values between groups deemed statistically significant at P<0.05 using logrank survival analysis. Mice were also monitored for complete regression (CR) and partial regression (PR) responses. An animal with a CR at the end of the study was additionally classified as a tumor-free survivor (TFS). Treatment tolerability was assessed by body weight measurements and frequent observation for clinical signs of treatment-related side effects.

Chain of hERG channel (Q12809 whole entry): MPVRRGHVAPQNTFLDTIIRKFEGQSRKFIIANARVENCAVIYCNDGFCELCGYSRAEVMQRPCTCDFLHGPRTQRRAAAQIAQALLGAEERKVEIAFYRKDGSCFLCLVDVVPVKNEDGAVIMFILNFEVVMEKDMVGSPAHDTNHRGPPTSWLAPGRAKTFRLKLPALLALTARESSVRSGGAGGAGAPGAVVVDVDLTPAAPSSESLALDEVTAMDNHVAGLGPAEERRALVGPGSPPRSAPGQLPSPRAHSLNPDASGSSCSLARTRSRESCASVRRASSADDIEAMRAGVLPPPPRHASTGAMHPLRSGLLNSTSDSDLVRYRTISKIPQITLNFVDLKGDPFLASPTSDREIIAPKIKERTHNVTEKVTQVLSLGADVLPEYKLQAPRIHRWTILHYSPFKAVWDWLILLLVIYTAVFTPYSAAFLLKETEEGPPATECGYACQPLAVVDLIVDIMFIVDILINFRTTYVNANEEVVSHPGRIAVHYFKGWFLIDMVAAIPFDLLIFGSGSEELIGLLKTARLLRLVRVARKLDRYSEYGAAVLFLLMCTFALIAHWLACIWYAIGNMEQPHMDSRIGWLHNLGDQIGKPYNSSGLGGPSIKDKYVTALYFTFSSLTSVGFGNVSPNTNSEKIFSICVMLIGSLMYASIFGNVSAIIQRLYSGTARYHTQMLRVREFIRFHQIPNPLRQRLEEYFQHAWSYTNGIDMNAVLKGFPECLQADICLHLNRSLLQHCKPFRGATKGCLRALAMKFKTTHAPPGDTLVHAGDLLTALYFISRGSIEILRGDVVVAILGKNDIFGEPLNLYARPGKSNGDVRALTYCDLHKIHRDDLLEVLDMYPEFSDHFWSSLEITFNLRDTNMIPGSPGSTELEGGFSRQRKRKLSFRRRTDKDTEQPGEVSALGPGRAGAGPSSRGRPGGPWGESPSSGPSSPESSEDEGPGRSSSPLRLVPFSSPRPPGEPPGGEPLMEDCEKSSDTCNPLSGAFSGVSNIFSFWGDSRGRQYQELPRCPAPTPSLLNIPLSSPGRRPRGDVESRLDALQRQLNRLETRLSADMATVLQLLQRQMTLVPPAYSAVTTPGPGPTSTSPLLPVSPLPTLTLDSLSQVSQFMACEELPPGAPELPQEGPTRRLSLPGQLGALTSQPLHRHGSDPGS
Chain of human sphingosine-1-phosphate receptor 2 (S1P2) (O95136 whole entry): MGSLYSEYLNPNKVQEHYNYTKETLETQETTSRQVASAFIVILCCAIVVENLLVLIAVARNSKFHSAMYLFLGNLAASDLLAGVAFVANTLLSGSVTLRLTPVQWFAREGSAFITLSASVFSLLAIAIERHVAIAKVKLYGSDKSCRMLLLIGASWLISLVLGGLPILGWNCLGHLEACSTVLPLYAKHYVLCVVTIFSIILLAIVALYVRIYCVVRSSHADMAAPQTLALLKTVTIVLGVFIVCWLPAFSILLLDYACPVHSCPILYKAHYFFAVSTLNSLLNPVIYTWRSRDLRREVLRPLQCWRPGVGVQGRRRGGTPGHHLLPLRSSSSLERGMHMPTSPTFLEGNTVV
Chain of human sphingosine-1-phosphate receptor 3 (S1P3) (Q99500 whole entry): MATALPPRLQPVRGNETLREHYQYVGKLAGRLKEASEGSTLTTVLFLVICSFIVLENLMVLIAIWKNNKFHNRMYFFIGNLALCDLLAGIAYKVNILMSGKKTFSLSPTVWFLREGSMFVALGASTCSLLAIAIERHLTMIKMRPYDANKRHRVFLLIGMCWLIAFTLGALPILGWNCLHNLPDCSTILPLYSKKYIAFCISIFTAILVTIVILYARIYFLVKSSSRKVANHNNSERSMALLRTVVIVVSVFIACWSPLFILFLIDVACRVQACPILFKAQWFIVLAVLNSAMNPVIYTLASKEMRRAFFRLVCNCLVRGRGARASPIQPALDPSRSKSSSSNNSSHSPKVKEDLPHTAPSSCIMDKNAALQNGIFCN
Chain of sphingosine-1-phosphate receptor 5 (S1P5) (Q9H228 whole entry): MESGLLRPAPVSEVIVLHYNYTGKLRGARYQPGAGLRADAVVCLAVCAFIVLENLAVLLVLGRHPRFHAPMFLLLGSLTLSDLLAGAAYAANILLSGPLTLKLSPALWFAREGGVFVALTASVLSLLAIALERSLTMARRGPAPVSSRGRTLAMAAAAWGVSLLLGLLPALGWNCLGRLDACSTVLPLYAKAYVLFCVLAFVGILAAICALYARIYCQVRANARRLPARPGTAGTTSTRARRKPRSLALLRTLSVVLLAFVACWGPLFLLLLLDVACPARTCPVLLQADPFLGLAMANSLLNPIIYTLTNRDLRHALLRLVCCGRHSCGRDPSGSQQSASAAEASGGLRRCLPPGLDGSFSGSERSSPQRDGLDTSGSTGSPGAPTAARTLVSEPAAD

SMILES | hS1P1 cAMP pEC50 [1] | hS1P1 B-arrestin2 pEC50 [2] | Lymphopenia: Effect and Doses, mg/kg, sc [6] | inhibition in vivo at 3 mg/kg [7] [%] | IC50 [8] [µM] | other results
CC(C)n1nnc2cc(-c3nc(-c4cccc5c4OCO5)no3)ccc21 [Compound 32, 3-(benzo[d][1,3]dioxol-4-yl)-5-(1-isopropyl-1H-benzo[d][1,2,3]triazol-5-yl)-1,2,4-oxadiazole] | >6.5 | >5 | no change: 6 mg/kg, 7 days |  |  | hS1P2 IP-one pEC50 [3]: <5.0; hS1P3 cAMP pEC50 [4]: <5.0; hS1P5 cAMP pEC50 [5]: <5.0
N#Cc1cc(-c2nc(-c3ccc4oc(=O)[nH]c4c3)no2)ccc1NCC1CC1 [Compound 423, 2-((cyclopropylmethyl)amino)-5-(3-(2-oxo-2,3-dihydrobenzo[d]oxazol-5-yl)-1,2,4-oxadiazol-5-yl)benzonitrile] | >6.5 | >5 | no change: 6 mg/kg, 7 days | > 50 |  | hS1P2 IP-one pEC50 [3]: >5.0; hS1P3 cAMP pEC50 [4]: >5.0
N#Cc1cc(-c2nc(-c3ccc4c(c3)NC(=O)C4)no2)ccc1NCC1CC1 [Compound 497, 2-((cyclopropylmethyl)amino)-5-(3-(2-oxoindolin-6-yl)-1,2,4-oxadiazol-5-yl)benzonitrile] | >6.5 | >5 |  | < 50 | > 10 | 
CC(F)(F)CNc1ccc(-c2nnc(-c3ccc4[nH]cnc4c3)o2)cc1C#N [Compound 520, 5-[5-(1H-1,3-benzodiazol-5-yl)-1,3,4-oxadiazol-2-yl]-2-[(2,2-difluoropropyl)amino]benzonitrile] | >6.5 | >5 | no change: 6 mg/kg, 7 days | > 50 | > 10 | Emax ([1]; CHO-K1, efficacy (SPAN) normalized to fingolimod, read-out: hS1P1 cAMP SPAN): > 75%; Emax ([2]; CHO-K1, efficacy (SPAN) normalized to fingolimod, read-out: hS1P1 B-arrestin2 SPAN): > 75%
CCC1(CC)CC(=O)c2cc(-c3nc(-c4ccc(NC(C)=O)cc4OC)no3)ccc2O1 [Compound 531, N-{4-[5-(2,2-diethyl-4-oxo-3,4-dihydro-2H-1-benzopyran-6-yl)-1,2,4-oxadiazol-3-yl]-3-methoxyphenyl}acetamide] | >6.5 | >5 | no change: 6 mg/kg, 7 days | > 50 |  | 
CC(C)Nc1ccc(-c2nc(-c3ccc4nonc4c3)no2)cc1C#N [Compound 730, 5-[3-(2,1,3-benzoxadiazol-5-yl)-1,2,4-oxadiazol-5-yl]-2-[(propan-2-yl)amino]benzonitrile] |  |  | no change: 6 mg/kg, 7 days | > 50 | > 10 | 
CC(C)Oc1ccc(-c2ncc(-c3cccnc3)cn2)cc1C#N [Compound 738, 2-isopropoxy-5-(5-(pyridin-3-yl)pyrimidin-2-yl)benzonitrile] |  |  |  |  | > 10 | 
CC(C)Oc1ccc(-c2ncc(-c3ccccn3)cn2)cc1C#N [Compound 742, 2-isopropoxy-5-(5-(pyridin-2-yl)pyrimidin-2-yl)benzonitrile] |  |  |  |  | > 10 | 
CC(C)Nc1ccc(-c2ncc(-c3ccnc(O)c3)cn2)cc1C#N [Compound 743, 5-(5-(2-hydroxypyridin-4-yl)pyrimidin-2-yl)-2-(isopropylamino) benzonitrile] |  |  |  |  | > 10 | 
CC(C)Oc1ccc(-c2ncc(-c3ccnc(O)c3)cn2)cc1C#N [Compound 744, 5-(5-(2-hydroxypyridin-4-yl)pyrimidin-2-yl)-2-isopropoxybenzonitrile] |  |  |  |  | > 10 | 
CC(=O)O[C@H]1C(=O)[C@@]2(C)[C@H]([C@H](OC(=O)c3ccccc3)[C@]3(O)C[C@H](OC(=O)[C@H](O)[C@@H](NC(=O)c4ccccc4)c4ccccc4)C(C)=C1C3(C)C)[C@]1(OC(C)=O)CO[C@@H]1C[C@@H]2O [Paclitaxel, reference compound] |  |  |  |  |  | percent tumor growth delay (% TGD), monotherapy [9]: 128%
CC(C)Oc1ccc(-c2nc(-c3cccc4c3CC[C@@H]4NCCO)no2)cc1C#N [ozanimod, reference compound] |  |  |  |  |  | percent tumor growth delay (% TGD), monotherapy [9]: 31%
